Measurements from patent publication EP3866826B1, “ANTIMICROBIAL PEPTIDES AND METHODS OF USING THE SAME” (priority 2018, dated 2020).
Where no end group is shown, it is not given here.

Columns and labels:
[1] = system: Candida 17-88 biofilm; assay: Inhibition of preformed biofilm, metabolic evaluation using XTT (FIG. 5); assay type: cell-based, Candida albicans; conditions: added to preformed Candida 17-88 biofilm for 24 hours
Experimental: Fluconazole or RP557 were added to preformed Candida 17-88 biofilm for 24 hours and biofilm inhibition evaluated via metabolic evaluation using XTT, 2,3-bis (2-methoxy-4-nitro-5-sulfophenyl) [phenyl-amino)carbonyl]-2H. Data represent the mean±SD of triplicate measurements and statistical significance, compared to vehicle control, determined by one-way ANOVA followed by Dunnett's test (*p < 0.05, **p < 0.01, and ***p < 0.001).

[2] = system: L929 fibroblast cells; assay: Cytotoxicity to mammalian cells, cell viability (FIG. 3C); assay type: cell-based
Experimental: The rapid destruction of pathogenic cells by potent broad-spectrum topical anti-infectives infer a theoretical reduced likelihood of developing bacterial resistance. […] Cell viability was performed using bioluminescent strains of P. aeruginosa 19660 (FIG. 3A), S. aureus 49525 (FIG. 3B) & L929 fibroblast cells (FIG. 3C) and imaged with the IVIS Lumina system. Data represents the mean of 3 measurements.

[3] = Stability in serum, monitored via LC-MS/MS; assay type: in vitro ADME; conditions: human serum for 72 hrs at 37°C monitored via LC-MS/MS
Experimental: (§1) Exemplary AMP RP557 was prepared in one gram lots at 98% purity or better. […] Furthermore, advances in solid and solution phase peptide chemistry has enabled Good Manufacturing Practice (GMP) material to be produced rapidly, economically in high yield and purity.

[4] = system: S. aureus, P. aeruginosa and Fuscobacterium ssp.; assay: Pharmacodynamic response in biofilm associated wounds, CFU counts of punch biopsies (FIG. 7); assay type: in vivo; conditions: 2% RP557 applied 24 hours post inoculation; biopsies at 30 min, 180 min and 24 hours post treatment
Experimental: (§2) From the in vitro screening assays three AMPs were selected for further evaluation in a qualified porcine burn wound model infected with P. aeruginosa and S. aureus. Full thickness wounds were created with heated brass rod and 2cm trephine: approximately 10 minutes after homeostasis, wounds were infected with a 2:2:1 mixture of S. aureus, P. aeruginosa and Fuscobacterium ssp. Treatment of infected wounds began 24 hours post infection to allow for biofilm formation.
FIG. 7A-7B Pharmacodynamic Response to RP557. Twenty four hours post bacterial inoculation biofilm associated wounds were treated with 2% RP557. Punch biopsies were taken at 30 min, 180 min and 24 hours post treatment, homogenized, plated and CFUs counted. Statistical significance was calculated using the Holm-Sidak method. *p<0.05, ***p<0.001, ****p<0.0001, dAMP vs Control.

[5] = Physiochemical properties of RP557 (hydrophilicity, solubility, pH stability); assay type: physicochemical; conditions: extremes of pH (<4)
Experimental: as §1

[6] = system: P. aeruginosa 27853; assay: Resistance development by serial passage at sub-inhibitory concentrations, 30 passages (FIG. 4); assay type: cell-based
Experimental: (§3) FIG. 4A to 4B. […] Sub-inhibitory concentrations of RP557, gentamicin and clindamycin were incubated with P. aeruginosa 27853 and S. aureus 29213 for 24 hours. Bacteria showing growth in the highest concentration were re-passaged in fresh dilutions containing sub-minimum inhibitory concentration (MIC) levels of each component for 30 consecutive passages; means are shown.

[7] = system: S. aureus 29213; assay: as above; assay type: cell-based
Experimental: as §3

[8] = system: C. albicans (ATCC 44858); assay: Vaginal infection rodent model of vulvovaginal candidiasis, fungal counts (FIG. 8); assay type: in vivo; conditions: rats, 20 mg/mL IVG at 0.1 mL/rat twice daily for 3 days from 48 hr after infection, CFUs on Day 5 (p < 0.0001)
Experimental: FIG. 8A to 8B. RP557 topical treatment reduces rodent vaginal candidiasis. Effects of RP557, miconazole and oral fluconazole in the C. albicans (ATCC 44858) vaginal infection rodent model. On Day 0, rats were inoculated intravaginally (IVG) with C. albicans at 1.46 x 10^7 CFU/rat. RP557 and miconazole at 20 mg/mL were administered IVG at 0.1 mL/rat twice daily at 8 hr intervals starting from 48 hr after infection for 3 days. CFUs were evaluated on Day 5 with limit of detection (LOD) 0.7 CFU/rat. Significant difference, compared to vehicle, determined by one-way ANOVA followed by Dunnett's test (*p < 0.05, ****p < 0.0001). A separate group receiving oral fluconazole; *p < 0.05 versus 0.1 and 10 mg/kg fluconazole.

[9] = system: gram-negative bacteria; A. baumannii and P. aeruginosa; gram-positive bacteria, S. aureus and MRSA and fungal strains; C. albicans, C. parapsilosis, C. krusei …; assay: Antimicrobial activity against multiple clinical isolates of bacteria and fungal strains; assay type: cell-based
Experimental: Thirty-four AMPs were synthesized and evaluated in three iterative rounds. Each AMP was evaluated for antimicrobial potency against 11 strains of bacteria, 7 strains of fungi and their cytotoxicity determined using L929 fibroblasts and human keratinocytes. The AMPs were evaluated for biofilm eradication and ability to induce antimicrobial resistance.

[10] = system: P. aeruginosa (porcine isolate); assay: Polymicrobial infected full-thickness thermal porcine burn model, bacterial counts (FIG. 6A); assay type: in vivo; conditions: pig, single dose, 2% RP557 (p<0.0001), sampled after 24 hours
Experimental: as §2
(§4) Full thickness wounds were created with a heated brass rod and a trephine on the back of anesthetized pigs followed by infection with 2:2:1 mixture of S. aureus ATCC 6538 (FIG. 6B) and P. aeruginosa (porcine isolate) (FIG. 6A) and fusobacterium ssp. After 3 hours, 0, 0.1, 0.2, 1 or 2% RP557 were applied. After 24 hours, wounds were sampled by punch biopsy and bacterial counts, expressed as log (Colony Forming Units, CFUs/g) evaluated. Data is expressed as mean±SE of 8 replicates. Statistical significance, compared to vehicle, determined by one-way ANOVA followed by Dunnett's test (**p < 0.01, ****p < 0.0001).

[11] = system: S. aureus ATCC 6538; assay: Polymicrobial infected full-thickness thermal porcine burn model, bacterial counts (FIG. 6B); assay type: in vivo; conditions: pig, single topical application, sampled after 24 hours
Experimental: as §2, §4

Sequence: RFCWKVCYKGICFKKCK (disulfide (positions not given here)) [RP557, 17 amino acids, hairpin structure formed by two disulfide bonds]
- biofilm inhibition [1]: potent inhibitor
- cytotoxicity to mammalian cells [2]: not cytotoxic
- stability in serum [3]: stable in serum
- pharmacodynamic response, CFUs in wounds [4]: Kills Infection Throughout a 24 Hour Period
- stability at extremes of pH [5]: stable
- susceptibility of the resistant strain at the end of 30 serial passages (cross resistance) ([6]; gentamicin-resistant P. aeruginosa): readily susceptible
- development of resistance ([6]; sub-inhibitory concentrations, 30 consecutive passages, P. aeruginosa 27853): did not develop resistance
- susceptibility of the resistant strain at the end of 30 serial passages (cross resistance) ([7]; clindamycin-resistant S. aureus): readily susceptible
- development of resistance ([7]; sub-inhibitory concentrations, 30 consecutive passages, S. aureus 29213): did not develop resistance
- fungal counts relative to the vehicle control group [8]: significant reductions
- antimicrobial activity [9]: broad-spectrum antimicrobial activity
- number of viable P. aeruginosa bacteria [10]: 1.96±1.64 log CFU/g tissue
- S. aureus CFU counts ([11]; 0.2% RP557 (p < 0.01)): 2.11±1.75 log CFU/g tissue
- S. aureus CFU counts ([11]; 1% RP557 (p < 0.0001)): 1.46±2.05 log CFU/g tissue
